Data: the NIST ThermoML archive (doi:10.1021/je700287u)

Experiment: xn = mol fraction of the nth substance listed
Settings: Liquid

CN(CCO)CCO [N-methyldiethanolamine] + O
Settings | mass density [kg/m3]
313.12 K, 1001 kPa, x1 = 0.0369 | 1005.7
313.12 K, 2015 kPa, x1 = 0.0369 | 1006.1
313.12 K, 2986 kPa, x1 = 0.0369 | 1006.5
313.12 K, 3994 kPa, x1 = 0.0369 | 1006.9
313.12 K, 5003 kPa, x1 = 0.0369 | 1007.3
313.12 K, 6002 kPa, x1 = 0.0369 | 1007.7
313.12 K, 6994 kPa, x1 = 0.0369 | 1008.1
313.12 K, 7995 kPa, x1 = 0.0369 | 1008.5
313.12 K, 8996 kPa, x1 = 0.0369 | 1008.9
313.12 K, 9983 kPa, x1 = 0.0369 | 1009.3
313.12 K, 10989 kPa, x1 = 0.0369 | 1009.7
313.12 K, 11991 kPa, x1 = 0.0369 | 1010.1
313.12 K, 12991 kPa, x1 = 0.0369 | 1010.5
313.12 K, 13988 kPa, x1 = 0.0369 | 1010.9
313.12 K, 14989 kPa, x1 = 0.0369 | 1011.4
313.12 K, 15985 kPa, x1 = 0.0369 | 1011.7
313.12 K, 16984 kPa, x1 = 0.0369 | 1012.1
313.12 K, 17985 kPa, x1 = 0.0369 | 1012.5
313.12 K, 18989 kPa, x1 = 0.0369 | 1012.9
313.12 K, 19945 kPa, x1 = 0.0369 | 1013.3
313.13 K, 1003 kPa, x1 = 0.1302 | 1033.5
313.13 K, 1011 kPa, x1 = 0.0893 | 1025.9
313.13 K, 1993 kPa, x1 = 0.1302 | 1033.9
313.13 K, 1994 kPa, x1 = 0.0893 | 1026.2
313.13 K, 2999 kPa, x1 = 0.1302 | 1034.3
313.13 K, 3002 kPa, x1 = 0.0893 | 1026.6
313.13 K, 3994 kPa, x1 = 0.1302 | 1034.6
313.13 K, 3998 kPa, x1 = 0.0893 | 1027
313.13 K, 4984 kPa, x1 = 0.1302 | 1035
313.13 K, 4998 kPa, x1 = 0.0893 | 1027.4
313.13 K, 6001 kPa, x1 = 0.0893 | 1027.8
313.13 K, 6001 kPa, x1 = 0.1302 | 1035.4
313.13 K, 6993 kPa, x1 = 0.1302 | 1035.8
313.13 K, 6994 kPa, x1 = 0.0893 | 1028.1
313.13 K, 8000 kPa, x1 = 0.0893 | 1028.5
313.13 K, 8003 kPa, x1 = 0.1302 | 1036.1
313.13 K, 8996 kPa, x1 = 0.1302 | 1036.5
313.13 K, 8999 kPa, x1 = 0.0893 | 1028.9
313.13 K, 9989 kPa, x1 = 0.1302 | 1036.8
313.13 K, 9995 kPa, x1 = 0.0893 | 1029.2
313.13 K, 10983 kPa, x1 = 0.1302 | 1037.2
313.13 K, 10990 kPa, x1 = 0.0893 | 1029.6
313.13 K, 11992 kPa, x1 = 0.1302 | 1037.6
313.13 K, 12001 kPa, x1 = 0.0893 | 1030
313.13 K, 12980 kPa, x1 = 0.1302 | 1037.9
313.13 K, 12989 kPa, x1 = 0.0893 | 1030.3
313.13 K, 14000 kPa, x1 = 0.0893 | 1030.7
313.13 K, 14000 kPa, x1 = 0.1302 | 1038.3
313.13 K, 14999 kPa, x1 = 0.0893 | 1031.1
313.13 K, 15002 kPa, x1 = 0.1302 | 1038.7
313.13 K, 15995 kPa, x1 = 0.0893 | 1031.4
313.13 K, 16001 kPa, x1 = 0.1302 | 1039.1
313.13 K, 16998 kPa, x1 = 0.1302 | 1039.5
313.13 K, 17013 kPa, x1 = 0.0893 | 1031.8
313.13 K, 17991 kPa, x1 = 0.1302 | 1039.8
313.13 K, 17993 kPa, x1 = 0.0893 | 1032.2
313.13 K, 18991 kPa, x1 = 0.0893 | 1032.6
313.13 K, 18996 kPa, x1 = 0.1302 | 1040.2
313.13 K, 19990 kPa, x1 = 0.1302 | 1040.5
313.13 K, 19991 kPa, x1 = 0.0893 | 1032.9
313.14 K, 999 kPa, x1 = 0.0607 | 1018.1
313.14 K, 2000 kPa, x1 = 0.0607 | 1018.5
313.14 K, 3028 kPa, x1 = 0.0607 | 1018.9
313.14 K, 4020 kPa, x1 = 0.0607 | 1019.3
313.14 K, 5011 kPa, x1 = 0.0607 | 1019.7
313.14 K, 6015 kPa, x1 = 0.0607 | 1020.1
313.14 K, 7003 kPa, x1 = 0.0607 | 1020.4
313.14 K, 8009 kPa, x1 = 0.0607 | 1020.8
313.14 K, 9014 kPa, x1 = 0.0607 | 1021.2
313.14 K, 10000 kPa, x1 = 0.0607 | 1021.5
313.14 K, 10977 kPa, x1 = 0.0607 | 1022
313.14 K, 12029 kPa, x1 = 0.0607 | 1022.3
313.14 K, 13022 kPa, x1 = 0.0607 | 1022.7
313.14 K, 13988 kPa, x1 = 0.0607 | 1023
313.14 K, 15009 kPa, x1 = 0.0607 | 1023.4
313.14 K, 16003 kPa, x1 = 0.0607 | 1023.8
313.14 K, 16995 kPa, x1 = 0.0607 | 1024.2
313.14 K, 18007 kPa, x1 = 0.0607 | 1024.6
313.14 K, 19000 kPa, x1 = 0.0607 | 1024.9
313.14 K, 19950 kPa, x1 = 0.0607 | 1025.3
323.08 K, 1011 kPa, x1 = 0.0607 | 1012.5
323.08 K, 2015 kPa, x1 = 0.0607 | 1012.9
323.08 K, 3015 kPa, x1 = 0.0607 | 1013.2
323.08 K, 4025 kPa, x1 = 0.0607 | 1013.7
323.08 K, 4995 kPa, x1 = 0.0607 | 1014
323.08 K, 6015 kPa, x1 = 0.0607 | 1014.4
323.08 K, 7015 kPa, x1 = 0.0607 | 1014.8
323.08 K, 7992 kPa, x1 = 0.0607 | 1015.2
323.08 K, 9006 kPa, x1 = 0.0607 | 1015.6
323.08 K, 10014 kPa, x1 = 0.0607 | 1016
323.08 K, 11000 kPa, x1 = 0.0607 | 1016.3
323.08 K, 12064 kPa, x1 = 0.0607 | 1016.8
323.08 K, 13004 kPa, x1 = 0.0607 | 1017.1
323.08 K, 13990 kPa, x1 = 0.0607 | 1017.5
323.08 K, 14997 kPa, x1 = 0.0607 | 1017.9
323.08 K, 15999 kPa, x1 = 0.0607 | 1018.2
323.08 K, 16993 kPa, x1 = 0.0607 | 1018.6
323.08 K, 18008 kPa, x1 = 0.0607 | 1019
323.08 K, 19017 kPa, x1 = 0.0607 | 1019.4
323.08 K, 19961 kPa, x1 = 0.0607 | 1019.7
323.09 K, 1017 kPa, x1 = 0.1302 | 1026.6
323.09 K, 1034 kPa, x1 = 0.0369 | 1001.1
323.09 K, 2001 kPa, x1 = 0.1302 | 1027
323.09 K, 2004 kPa, x1 = 0.0369 | 1001.5
323.09 K, 2993 kPa, x1 = 0.0369 | 1001.9
